Converted amounts (≈) assume the structure as drawn. Like-named read-outs stand apart in the source and are kept apart here.
Assays:
[1] = Plasma Protein Binding, human; type: in vitro ADME
[2] = Metabolism in hepatocytes (predicted EH), dog; type: in vitro ADME
CYP2D6 = biological target: T1, CYP2D6 (Homo sapiens, UniProt P10635); experiment: CYP450 inhibition, specific substrate approach in human liver microsomes: CYP2D6; type: in vitro ADME
T1 construct: using a specific substrate approach in human liver microsomes; from tissue; host or cells: human liver microsomes
T1 sequence (P10635 whole entry): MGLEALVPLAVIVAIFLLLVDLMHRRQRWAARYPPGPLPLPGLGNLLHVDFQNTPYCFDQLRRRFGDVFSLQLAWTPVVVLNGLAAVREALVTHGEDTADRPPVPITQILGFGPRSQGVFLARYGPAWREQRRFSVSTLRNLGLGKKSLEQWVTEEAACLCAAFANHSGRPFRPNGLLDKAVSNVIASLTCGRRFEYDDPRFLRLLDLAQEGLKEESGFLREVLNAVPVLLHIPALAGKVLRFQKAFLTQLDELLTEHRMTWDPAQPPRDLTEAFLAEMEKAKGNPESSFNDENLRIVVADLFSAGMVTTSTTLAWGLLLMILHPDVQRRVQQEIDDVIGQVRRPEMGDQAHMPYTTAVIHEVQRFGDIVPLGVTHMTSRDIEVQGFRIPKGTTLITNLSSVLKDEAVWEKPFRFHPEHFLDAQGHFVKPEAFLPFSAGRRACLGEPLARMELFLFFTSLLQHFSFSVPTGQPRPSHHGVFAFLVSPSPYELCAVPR
Protocol: (§1) CYP450 Isoform Inhibition Using a Specific Substrate Approach
(§2) The present study is a “Tier 2” screen to assess potential enzyme inhibition at a test compound concentration of 20 μM using a specific substrate approach in human liver microsomes.
(§3) The substrate specific enzyme inhibition study relies on the formation of a metabolite that is mediated by a specific CYP450 isoform using human liver microsomes. In the current study, the following reactions were monitored to assess interactions with specific CYP450 isoforms. A known inhibitor of each isoform was included in each assay as a positive control. The following IC50 values have been reported in the literature using equivalent assay conditions for each CYP450 isoform:
(§4) The reaction was initiated by the addition of an NADPH-regenerating system and was quenched by the addition of acetonitrile prior to determining the concentration (and apparent rate of formation) of the specific metabolite by LC/MS.
(§5) The IC50 was deemed to be the concentration at which there was a 50% reduction in the amount of metabolite formed, relative to the maximal extent of formation.

[3] = Equilibrium Solubility (pH 2-7); type: physicochemical; conditions: for solubility thermodynamic: aqueous buffer, thermodynamic from solid
CYP2C9 = biological target: T2, CYP2C9 (Homo sapiens, UniProt P11712); experiment: CYP450 inhibition, specific substrate approach in human liver microsomes: CYP2C9; type: in vitro ADME
T2 construct: using a specific substrate approach in human liver microsomes; from tissue; host or cells: human liver microsomes
T2 sequence (P11712 whole entry): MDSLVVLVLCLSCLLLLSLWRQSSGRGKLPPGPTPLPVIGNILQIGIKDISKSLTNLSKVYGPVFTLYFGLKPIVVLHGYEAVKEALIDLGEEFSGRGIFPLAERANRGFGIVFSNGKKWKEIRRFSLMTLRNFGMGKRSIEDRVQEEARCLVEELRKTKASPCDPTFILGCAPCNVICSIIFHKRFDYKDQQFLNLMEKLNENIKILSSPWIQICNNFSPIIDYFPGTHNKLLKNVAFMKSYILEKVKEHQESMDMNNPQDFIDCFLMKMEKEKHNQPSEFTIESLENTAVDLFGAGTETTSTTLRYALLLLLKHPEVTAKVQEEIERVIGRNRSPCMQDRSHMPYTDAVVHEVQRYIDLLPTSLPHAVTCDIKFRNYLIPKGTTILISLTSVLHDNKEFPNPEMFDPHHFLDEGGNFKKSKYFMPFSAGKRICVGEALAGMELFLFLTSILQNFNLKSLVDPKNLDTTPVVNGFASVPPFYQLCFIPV
Protocol: as §1, §2, §3, §4, §5

[4] = test system: 6-OHDA lesion of the SNpc; experiment: Parkinson's disease in vivo: 6-OHDA model; set-up: species or system mouse; conditions: 6-OHDA lesioned mice
Protocol: Parkinson's Disease In Vivo Technique: 6-OHDA Model
Preparation of the toxin 6-OHDA (1.65 mg/mL, Sigma Cat# H-4381):
6-OHDA toxin is dissolved in ascorbic acid solution (0.2 mg/mL in dH2O), store in dark on ice. To increase the speed of anaesthesia and reduce stress to the mouse, there is premedication with atropine (0.5 mg/kg) and xylazine (10 mg/kg) is injected subcutaneously via a 27 gauge needle).
To Prepare the Lesion Needle to Inject 6-OHDA:
PBS is sucked up into the line (ensure no air bubbles) with up to […] in a Hamilton syringe. Syringe is placed the in the Kd Scientific syringe pump and secured. Pump is turned the on and syringe is loaded into the pump. Pump volume is set at […] and the rate is set at 0.5 ml/min. The lesion needle is positioned so that the bevelled (eye) of the needle is at a 45° angle from the midline and tightened to secure the needle. Pump is run and checked for fluid coming out.
3-4% isoflurane is carried by oxygen to induce anaesthesia and 1-2% for maintenance of anaesthesia. Animal is placed in small induction chamber and subjected to a few minutes of 4% isoflurane in oxygen at a flow rate of approx 1 l/min. Mouse is then placed in stereotaxic frame. The anaesthetic tube is disconnected from induction box and isoflurane reduced to 2% conc and oxygen flow rate to approx […]. Tube is connected to the nose piece attached to stereotaxic frame so that anaesthetic gas can be constantly administered during surgery. LHS ear bar is screwed at approx 3 mm. RHS ear bar is screwed in until there is no sideways head movement (about 5 mm). Front incisors are placed over the mouthguard and put nose-guard on (3 mm below 0). Mouthguard is screwed into place and ensured the top of the mouse's head is level (re-check this once the animal's skull is exposed).
Using a scalpel (size 4, blade 22), the scalp is cut down the centreline of the mouse's head to expose the skull. Typically 10-15 mm. The surface of the skull is dried with a cotton bud. Drill hole is measured with a ruler 3 mm posterior from Bregma and between 1 and 1.5 mm laterally from the centre line. The skull is drilled into this position until the surface of the brain is exposed.
6-OHDA is sucked up to fill approximately 15 cm of the line and the syringe. Fluid is ensured to be coming out of needle. The bevelled of the needle is aligned over the centreline where Bregma crosses, viewed by Motik dissecting microscope. The needle is ensured to be a few mm above the skull before positioning. Frame is moved 2.9 mm in a posterior direction and 1.1 mm (11 small notches) laterally to the right (for RHS injections) from the starting coordinates at Bregma. Needle is moved down until the tip of the needle just touches the surface of the brain.
Needle is lowered to the required depth of 4.6 mm and brain is allowed to settle for 2 min.
[…] of toxin is injected into the RHS SNpc, taking 4 min. 2 min is allowed to ensure the toxin disperses. Needle is withdrawn and antiseptic applied to the wound, with suture or superglue to close.
Mouse is wrapped in a piece of tissue and placed in a warm recovery box (on a heat pad) with water bottles (50 ml tubes) warmed to 50 C. Panadol® syrup is added to mouse's water bottle.
Rotation is recorded by the Computer based Rotacount system—(Columbus Instruments, Columbus, Ohio, USA). The system comprised of 8 bowls with sensors connected to a computer which measures incremental turns (90 degrees and full turns 360 degrees) either clockwise or counter clockwise. The sensors are positioned above the centre of each bowl about 30 cm above each. Tubing and a thin empty plastic pipette are attached so that the sensor is now extended to with a few cm of the base of the bowl.
Mice are placed individually into the eight bowls. Mice are secured to the pipettes via a cable tie and tape. […]

CYP3A4 = CYP3A4 (Homo sapiens, UniProt P08684); experiment: CYP450 inhibition, specific substrate approach in human liver microsomes: CYP3A4; type: in vitro ADME; set-up: using a specific substrate approach in human liver microsomes; from tissue; host or cells: human liver microsomes
Sequence of CYP3A4 (P08684 2-503): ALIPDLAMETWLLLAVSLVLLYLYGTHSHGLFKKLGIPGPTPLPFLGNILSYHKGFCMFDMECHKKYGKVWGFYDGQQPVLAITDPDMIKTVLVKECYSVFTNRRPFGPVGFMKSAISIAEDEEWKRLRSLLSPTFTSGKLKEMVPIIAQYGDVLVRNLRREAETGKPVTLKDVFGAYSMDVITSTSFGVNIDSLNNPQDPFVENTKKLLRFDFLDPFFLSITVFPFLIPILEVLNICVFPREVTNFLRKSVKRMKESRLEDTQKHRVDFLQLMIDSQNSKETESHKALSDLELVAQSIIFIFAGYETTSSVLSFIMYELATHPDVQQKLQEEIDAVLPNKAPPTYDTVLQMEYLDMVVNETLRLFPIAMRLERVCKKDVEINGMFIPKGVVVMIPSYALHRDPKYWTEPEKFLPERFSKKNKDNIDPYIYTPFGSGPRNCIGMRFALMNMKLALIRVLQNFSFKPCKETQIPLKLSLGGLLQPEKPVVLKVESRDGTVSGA
Protocol: as §1, §2, §3, §4, §5

[5] = midazolam, read-out: CYP3A4-Midazolam IC50
[6] = testosterone, read-out: CYP3A4-Testosterone IC50

| SMILES | fraction unbound [1] | Metabolism (Predicted EH), Hepatocytes: Dog [2] | pH dependence of equilibrium solubility [3] | solubility thermodynamic [3] [µg/mL] | IC50 (CYP2C9) [µM] | IC50 (CYP2D6) [µM] | Behaviour (Rotation) % SSV ([4]; SSV = 0%, dose not given) [%] | Behaviour (Rotation) total turns/h ± SD ([4]; dose not given) | SN cell counts % of SSV (SSV = 0%) ([4]; dose not given) [%] | SN cell counts (cells ± SD) ([4]; dose not given) | IC50 (CYP3A4; [5]) [µM] | IC50 (CYP3A4; [6]) [µM] | other results |
| --- | --- | --- | --- | --- | --- | --- | --- | --- | --- | --- | --- | --- | --- |
| CNCc1nc2c(O)c(Cl)cc(Cl)c2c(=O)n1C [Compound F4161] | 0.043 | Dog = 0.56 | pH dependent | 196 to 746 (≈ 0.68 to 2.59 mM) | – | – | – | – | – | – | – | – | IC50 (CYP2D6; human, liver microsomes, probe dextromethorphan 3 μM): 40 µM |
| CN(C)Cc1nc2c(O)c(Cl)cc(Cl)c2c(=O)n1CC1CC1 [Compound F4267] | 0.005 | Dog = 0.39 | pH dependent | 393 to 1700 (≈ 1.15 to 4.98 mM) | > 30 | 7.4 | – | – | – | – | – | – | Behaviour (Rotation) % SSV ([4]; 5 mg kg): 7.01%; Behaviour (Rotation) total turns/h ± SD ([4]; 5 mg kg): (240.89 ± 171.99) turns/h; SN cell counts % of SSV (SSV = 0%) ([4]; 5 mg kg): 55.79%; SN cell counts (cells ± SD) ([4]; 5 mg kg): (2992.00 ± 883.84) cells; Behaviour (Rotation) % SSV ([4]; 15 mg kg): −23.39%; Behaviour (Rotation) total turns/h ± SD ([4]; 15 mg kg): (319.67 ± 171.05) turns/h; SN cell counts % of SSV (SSV = 0%) ([4]; 15 mg kg): 77.86%; SN cell counts (cells ± SD) ([4]; 15 mg kg): (3415.96 ± 498.05) cells; Behaviour (Rotation) % SSV ([4]; 30 mg kg): 36.33%; Behaviour (Rotation) total turns/h ± SD ([4]; 30 mg kg): (164.93 ± 110.90) turns/h; SN cell counts % of SSV (SSV = 0%) ([4]; 30 mg kg): 110.44%; SN cell counts (cells ± SD) ([4]; 30 mg kg): (4041.70 ± 799.55) cells; IC50 (CYP3A4; substrate not stated, read-out: CYP3A4 IC50): > 30 µM |
| CCn1c(CN(C)C)nc2c(O)c(Cl)cc(Cl)c2c1=O.Cl [Compound F4268] | 0.029 | Dog = 0.49 | not pH dependent | 3810 to 10200 | > 20 | > 20 | 56.04 | (114.56 ± 71.86) turns/h | 93.96 | (3725.04 ± 842.65) cells | ~20 | > 20 | – |
| CN(C)Cc1nc2c(O)c(Cl)cc(Cl)c2c(=O)n1C [Compound F4269, 5,7-Dichloro-2-(dimethylamino)methyl-8-hydroxy-3-methylquinazolin-4(3H)-one] | 0.054 to 0.059 | Dog = 0.54 | pH dependent | 166 to 2670 (≈ 0.549 to 8.84 mM) | > 30 | > 30 | 48.85 | (132.50 ± 81.93) turns/h | 68.91 | (3243.93 ± 724.98) cells | > 30 | > 30 | – |
| CCN(CC)Cc1nc2c(O)c(Cl)cc(Cl)c2c(=O)n1CC1CC1 [Compound F4385] | 0.008 to 0.013 | Dog = 0.37 | pH dependent | 683 to 1660 (≈ 1.84 to 4.49 mM) | > 30 | 5.1 | 49.98 | (129.57 ± 16.26) turns/h | 56.81 | (3011.56 ± 502.27) cells | 21.5 | > 30 | – |
| C#CCN(C)Cc1nc2c(O)c(Cl)cc(Cl)c2c(=O)n1CC1CC1 [Compound F4387] | – | – | – | – | – | – | 24.51 | (195.57 ± 114.48) turns/h | 46.90 | (2821.24 ± 940.22) cells | – | – | – |
| CCNCc1nc2c(O)c(Cl)cc(Cl)c2c(=O)n1CC [Compound F4495] | 0.023 to 0.024 | Dog = 0.56 | not pH dependent | 2230 to 4730 (≈ 7.04 to 14.9 mM) | > 30 | 9.5 | 18.06 | (212.29 ± 101.41) turns/h | 57.22 | (3019.56 ± 318.79) cells | > 30 | > 30 | – |
| Br.CCNCc1nc2c(O)c(Cl)cc(Cl)c2c(=O)n1C [Compound F4496] | – | Dog = 0.66 | not pH dependent | 224 to 1500 | > 30 | > 30 | 36.62 | (164.20 ± 100.40) turns/h | 95.68 | (3758.11 ± 510.98) cells | 4.4 | 8.6 | – |

Reference: patent publication US9145375B2, “Quinazolinone compounds” (PRANA BIOTECHNOLOGY LIMITED, priority 2008, dated 2015)
